In ChEMBL document CHEMBL4706552, “Discovery of 4-methyl-N-(4-((4-methylpiperazin- 1-yl)methyl)-3-(trifluoromethyl)phenyl)-3-((6-(pyridin-3-yl)-1H-pyrazolo[3,4-d]pyrimidin-4-yl)-oxy)benzamide as a potent inhibitor of RET and its gatekeeper mutant” (Eur J Med Chem, 2020):
Calls of active or inactive are those of the source. No cut-off for these calls is given here.

Columns and labels:
[1] = biological target: T1, Coiled-coil domain-containing protein 6/Tyrosine-protein kinase receptor RET (Homo sapiens) (UniProt P07949+Q16204); assay: Inhibition of CCDC6-RET fusion protein (unknown origin) expressed in mouse BaF3 cells assessed as reduction in ERK phosphorylation at 10 to 500 nM measured after 4 hrs by Western blot analysis; format: cell-based; conditions: dose 10-500 nM
T1 sequence (P07949 29-1114 limits assumed): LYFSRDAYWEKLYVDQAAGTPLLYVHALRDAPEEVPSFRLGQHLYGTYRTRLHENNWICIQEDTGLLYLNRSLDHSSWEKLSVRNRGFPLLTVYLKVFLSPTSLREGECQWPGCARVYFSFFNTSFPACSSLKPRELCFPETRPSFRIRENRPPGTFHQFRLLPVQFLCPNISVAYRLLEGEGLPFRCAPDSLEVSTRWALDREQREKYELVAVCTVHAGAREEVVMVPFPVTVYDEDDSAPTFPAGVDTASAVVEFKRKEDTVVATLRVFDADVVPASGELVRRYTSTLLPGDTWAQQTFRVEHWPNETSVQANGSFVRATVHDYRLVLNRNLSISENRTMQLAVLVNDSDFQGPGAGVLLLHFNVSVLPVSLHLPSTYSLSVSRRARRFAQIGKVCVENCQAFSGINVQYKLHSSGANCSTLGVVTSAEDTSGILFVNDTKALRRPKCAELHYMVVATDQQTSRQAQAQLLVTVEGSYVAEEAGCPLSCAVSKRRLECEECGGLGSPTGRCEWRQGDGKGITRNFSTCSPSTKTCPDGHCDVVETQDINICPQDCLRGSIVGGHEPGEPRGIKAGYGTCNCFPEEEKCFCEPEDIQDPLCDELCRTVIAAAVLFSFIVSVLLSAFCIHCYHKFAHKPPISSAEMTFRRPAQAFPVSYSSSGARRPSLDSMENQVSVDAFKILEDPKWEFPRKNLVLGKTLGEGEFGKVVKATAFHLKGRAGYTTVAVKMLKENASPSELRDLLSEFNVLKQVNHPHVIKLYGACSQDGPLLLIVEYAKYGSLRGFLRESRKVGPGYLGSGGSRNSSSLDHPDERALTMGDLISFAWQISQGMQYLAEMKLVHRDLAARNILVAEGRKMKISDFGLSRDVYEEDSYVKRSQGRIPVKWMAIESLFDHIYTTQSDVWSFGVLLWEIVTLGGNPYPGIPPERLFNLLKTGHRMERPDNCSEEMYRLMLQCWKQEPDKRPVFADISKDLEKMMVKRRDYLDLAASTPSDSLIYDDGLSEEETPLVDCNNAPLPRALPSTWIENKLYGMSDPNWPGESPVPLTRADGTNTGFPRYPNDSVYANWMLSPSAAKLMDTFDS
T1 sequence (Q16204 2-474 partner limits assumed): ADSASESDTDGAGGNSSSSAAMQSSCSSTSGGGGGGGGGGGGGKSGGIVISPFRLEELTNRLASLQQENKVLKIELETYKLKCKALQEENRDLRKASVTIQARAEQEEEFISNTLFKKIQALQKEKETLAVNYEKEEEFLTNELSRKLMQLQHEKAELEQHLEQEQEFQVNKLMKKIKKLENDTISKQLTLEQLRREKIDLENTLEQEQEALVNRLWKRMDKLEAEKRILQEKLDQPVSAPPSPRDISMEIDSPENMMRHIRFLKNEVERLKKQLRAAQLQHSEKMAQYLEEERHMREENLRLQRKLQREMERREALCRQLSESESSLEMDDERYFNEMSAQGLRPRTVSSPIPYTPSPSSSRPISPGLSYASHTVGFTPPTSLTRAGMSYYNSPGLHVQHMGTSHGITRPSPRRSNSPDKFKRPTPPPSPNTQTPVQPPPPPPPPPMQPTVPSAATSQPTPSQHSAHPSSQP

BaF3 [2] = assay: Induction of apoptosis in KIF5B-RET fusion protein expressing mouse BaF3 cells implanted in BALB/c mouse assessed as increase in cleaved PARP level at 30 to 50 mg/kg, iv administered once daily for 7 days measured 4 hrs post last dose by Western blot analysis; format: functional, organism-based; conditions: dose 30-50 mg/kg, time 7.0 day
[3] = AUC (0 to infinity) in Sprague-Dawley rat at 10 mg/kg, po; format: ADME, organism-based; parameters: time infinity, route oral, dose 10 mg/kg; conditions: in vivo
[4] = biological target: Kinesin-1 heavy chain/ Tyrosine-protein kinase receptor RET (Homo sapiens, UniProt P07949); assay: Inhibition of KIF5B-RET fusion protein (unknown origin) by radiometric assay
[5] = biological target: Coiled-coil domain-containing protein 6/Tyrosine-protein kinase receptor RET (Homo sapiens, UniProt P07949); assay: Inhibition of human N-terminal GST-HIS6 fused CCDC6-RET fusion protein (Met1 to Ser503 residues) expressed in Sf9 insect cells using TRK-C-derived peptide as substrate in presence of [33P]-ATP by filter binding assay
[6] = AUC (0 to t) in Sprague-Dawley rat at 1 mg/kg, iv; format: ADME, organism-based; parameters: dose 1 mg/kg; conditions: in vivo
BaF3 [7] = assay: Induction of apoptosis in KIF5B-RET V804M mutant fusion protein expressing mouse BaF3 cells implanted in BALB/c mouse assessed as increase in cleaved caspase-3 level at 30 to 50 mg/kg, iv administered once daily for 7 days measured 4 hrs post last dose by H and E staining based immunohistochemical analysis; format: functional, organism-based; conditions: dose 30-50 mg/kg, time 7.0 day
[8] = tested on: Proto-oncogene tyrosine-protein kinase receptor Ret (Homo sapiens), P07949 [V804L]; assay: Binding affinity to wild-type human partial length RET V804L mutant (E713 to D1014 residues) expressed in bacterial expression system assessed as residual binding level at 1 uM by kinomescan method relative to control
MDA-MB-231 = assay: Antiproliferative activity against human MDA-MB-231 cells measured after 48 hrs by MTS assay; format: functional
[9] = tested on: Proto-oncogene tyrosine-protein kinase receptor Ret (Homo sapiens), P07949 [M918T]; assay: Binding affinity to wild-type human partial length RET M918T mutant (E713 to D1014 residues) expressed in bacterial expression system assessed as residual binding level at 1 uM by kinomescan method relative to control
[10] = Tmax in Sprague-Dawley rat at 10 mg/kg, po; format: ADME, organism-based; conditions: in vivo
BaF3 [11] = assay: Antitumor activity against KIF5B-RET fusion protein expressing mouse BaF3 cells implanted in BALB/c mouse assessed as tumor growth inhibition at 30 to 50 mg/kg, iv administered once daily for 7 days relative to control; format: functional; conditions: dose 30-50 mg/kg, time 7 day
A-375 = assay: Antiproliferative activity against human A-375 cells measured after 48 hrs by MTS assay; format: functional
BaF3 [12] = assay: Inhibition of CCDC6-RET V804M mutant fusion protein (unknown origin) expressed in mouse BaF3 cells assessed as reduction in SHC phosphorylation at 10 to 500 nM measured after 4 hrs by Western blot analysis; format: cell-based; conditions: Homo sapiens, dose 10-500 nM
BaF3 [13] = assay: Inhibition of CCDC6-RET V804M mutant fusion protein (unknown origin) expressed in mouse BaF3 cells assessed as reduction in AKT phosphorylation at 10 to 500 nM measured after 4 hrs by Western blot analysis; format: cell-based; conditions: Homo sapiens, dose 10-500 nM
[14] = tested on: Proto-oncogene tyrosine-protein kinase receptor Ret (Homo sapiens), P07949 [V804M]; assay: Binding affinity to wild-type human partial length RET V804M mutant (E713 to D1014 residues) expressed in bacterial expression system assessed as residual binding level at 1 uM by kinomescan method relative to control
Chain of Proto-oncogene tyrosine-protein kinase receptor Ret (Homo sapiens), P07949 [V804M] (P07949 whole entry V804M, the tested form may be a part): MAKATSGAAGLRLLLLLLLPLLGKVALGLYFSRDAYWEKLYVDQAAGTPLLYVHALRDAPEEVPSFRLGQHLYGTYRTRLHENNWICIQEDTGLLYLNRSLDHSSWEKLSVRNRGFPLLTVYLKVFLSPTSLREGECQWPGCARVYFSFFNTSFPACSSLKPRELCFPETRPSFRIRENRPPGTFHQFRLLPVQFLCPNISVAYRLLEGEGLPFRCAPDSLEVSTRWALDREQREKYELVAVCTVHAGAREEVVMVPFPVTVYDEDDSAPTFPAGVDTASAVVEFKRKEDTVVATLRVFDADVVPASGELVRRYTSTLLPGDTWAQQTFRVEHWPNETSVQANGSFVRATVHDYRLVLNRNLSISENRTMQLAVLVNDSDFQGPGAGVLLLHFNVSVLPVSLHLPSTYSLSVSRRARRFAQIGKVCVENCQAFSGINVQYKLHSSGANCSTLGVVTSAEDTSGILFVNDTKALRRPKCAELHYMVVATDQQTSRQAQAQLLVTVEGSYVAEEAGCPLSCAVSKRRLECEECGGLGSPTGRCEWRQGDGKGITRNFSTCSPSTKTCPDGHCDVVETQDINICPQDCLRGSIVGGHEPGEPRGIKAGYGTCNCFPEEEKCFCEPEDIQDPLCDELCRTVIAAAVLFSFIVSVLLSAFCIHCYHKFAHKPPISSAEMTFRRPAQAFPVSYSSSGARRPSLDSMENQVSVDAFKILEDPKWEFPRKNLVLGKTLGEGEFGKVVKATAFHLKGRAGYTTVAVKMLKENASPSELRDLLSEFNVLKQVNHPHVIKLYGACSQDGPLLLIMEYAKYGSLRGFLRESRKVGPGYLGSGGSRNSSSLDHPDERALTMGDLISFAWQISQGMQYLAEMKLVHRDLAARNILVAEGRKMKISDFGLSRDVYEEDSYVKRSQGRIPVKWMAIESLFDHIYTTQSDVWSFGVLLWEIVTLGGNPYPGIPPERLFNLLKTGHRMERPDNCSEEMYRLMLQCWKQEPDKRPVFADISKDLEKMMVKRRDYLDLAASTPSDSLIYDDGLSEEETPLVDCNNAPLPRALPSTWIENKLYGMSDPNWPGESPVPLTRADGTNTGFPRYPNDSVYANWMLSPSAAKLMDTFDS

A549 = assay: Antiproliferative activity against human A549 cells measured after 48 hrs by MTS assay; format: functional
[15] = biological target: Proto-oncogene tyrosine-protein kinase receptor Ret (Homo sapiens, UniProt P07949, V804M); assay: Inhibition of recombinant human N-terminal GST-HIS6 fused RET V804M mutant C-terminal domain (H658 to S1114 residues) expressed in Sf9 insect cells using TRK-C-derived peptide as substrate in presence of [33P]-ATP by filter binding assay
[16] = Toxicity in BALB/c mouse implanted with KIF5B-RET fusion protein expressing mouse BaF3 cells assessed as body weight loss at 30 to 50 mg/kg, iv administered daily for 7 days measured daily during compound dosing; format: organism-based; conditions: in vivo, 168 h, dose 30-50 mg/kg, time 7 day
[17] = tested on: Kinesin-1 heavy chain/ Tyrosine-protein kinase receptor RET (Homo sapiens), P07949+P33176 [V804M]; assay: Inhibition of KIF5B-RET V804M mutant fusion protein (unknown origin) expressed in mouse BaF3 cells assessed as reduction in […] measured after 4 hrs by Western blot analysis; format: cell-based
Mus musculus [18] = assay: In vivo inhibition of KIF5B-RET fusion protein in BALB/c mouse implanted with KIF5B-RET fusion protein expressing mouse BaF3 cells assessed as reduction in SHC phosphorylation at 30 to 50 mg/kg, iv administered daily for 7 days and measured 4 hrs post last dose by Western blot analysis; format: functional, organism-based; conditions: dose 30-50 mg/kg, time 7.0 day
[19] = biological target: Kinesin-1 heavy chain/ Tyrosine-protein kinase receptor RET (Homo sapiens) (UniProt P07949+P33176); assay: Inhibition of KIF5B-RET fusion protein (unknown origin) expressed in mouse BaF3 cells assessed as reduction in RET autophosphorylation at 50 nM measured after 4 hrs by Western blot analysis; format: cell-based
Chain of Kinesin-1 heavy chain/ Tyrosine-protein kinase receptor RET (Homo sapiens) (P07949 29-1114 limits assumed): as the sequence (P07949 29-1114 limits assumed) above
Chain of Kinesin-1 heavy chain/ Tyrosine-protein kinase receptor RET (Homo sapiens) (P33176 2-963 partner limits assumed): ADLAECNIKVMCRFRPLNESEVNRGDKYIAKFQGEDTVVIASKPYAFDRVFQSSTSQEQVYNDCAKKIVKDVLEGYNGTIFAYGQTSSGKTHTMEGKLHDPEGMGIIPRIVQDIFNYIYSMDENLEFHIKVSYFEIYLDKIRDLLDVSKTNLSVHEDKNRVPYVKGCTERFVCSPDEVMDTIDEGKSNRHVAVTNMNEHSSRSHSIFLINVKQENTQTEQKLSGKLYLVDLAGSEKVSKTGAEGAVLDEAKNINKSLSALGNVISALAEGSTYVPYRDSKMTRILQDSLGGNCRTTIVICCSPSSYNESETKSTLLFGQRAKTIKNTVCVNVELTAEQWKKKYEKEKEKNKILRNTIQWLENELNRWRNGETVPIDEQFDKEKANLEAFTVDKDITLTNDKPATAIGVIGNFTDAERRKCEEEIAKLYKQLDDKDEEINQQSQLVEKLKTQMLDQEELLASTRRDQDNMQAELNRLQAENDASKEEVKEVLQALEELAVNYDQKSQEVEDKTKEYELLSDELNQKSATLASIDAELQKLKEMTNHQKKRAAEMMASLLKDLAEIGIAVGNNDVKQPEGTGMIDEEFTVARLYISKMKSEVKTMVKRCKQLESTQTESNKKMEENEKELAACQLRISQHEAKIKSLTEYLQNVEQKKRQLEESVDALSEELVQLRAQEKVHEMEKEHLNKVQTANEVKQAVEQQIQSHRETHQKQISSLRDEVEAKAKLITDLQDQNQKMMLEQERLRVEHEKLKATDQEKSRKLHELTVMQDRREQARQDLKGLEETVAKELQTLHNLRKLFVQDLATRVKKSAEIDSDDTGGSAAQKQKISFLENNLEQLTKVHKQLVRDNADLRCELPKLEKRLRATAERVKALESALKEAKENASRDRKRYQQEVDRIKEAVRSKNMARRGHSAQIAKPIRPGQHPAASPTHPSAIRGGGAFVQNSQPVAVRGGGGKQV

Mus musculus [20] = assay: In vivo inhibition of KIF5B-RET fusion protein in BALB/c mouse implanted with KIF5B-RET fusion protein expressing mouse BaF3 cells assessed as reduction in RET phosphorylation at 30 to 50 mg/kg, iv administered daily for 7 days and measured 4 hrs post last dose by Western blot analysis; format: functional, organism-based; conditions: dose 30-50 mg/kg, time 7.0 day
[21] = biological target: T1, Coiled-coil domain-containing protein 6/Tyrosine-protein kinase receptor RET (Homo sapiens); assay: Inhibition of CCDC6-RET fusion protein (unknown origin) expressed in mouse BaF3 cells assessed as reduction in cell proliferation measured after 48 hrs by MTS assay; format: cell-based
[22] = biological target: Proto-oncogene tyrosine-protein kinase receptor Ret (Homo sapiens, UniProt P07949, M918T); assay: Inhibition of recombinant human N-terminal GST-HIS6 fused RET M918T mutant C-terminal domain (H658 to S1114 residues) expressed in Sf9 insect cells using TRK-C-derived peptide as substrate in presence of [33P]-ATP by filter binding assay
NCI-H3122 = assay: Antiproliferative activity against human NCI-H3122 cells measured after 48 hrs by MTS assay; format: functional
[23] = biological target: T1, Coiled-coil domain-containing protein 6/Tyrosine-protein kinase receptor RET (Homo sapiens); assay: Inhibition of CCDC6-RET fusion protein (unknown origin) expressed in mouse BaF3 cells assessed as reduction in SHC phosphorylation at 10 to 500 nM measured after 4 hrs by Western blot analysis; format: cell-based; conditions: dose 10-500 nM
BaF3 [24] = assay: Antitumor activity against KIF5B-RET fusion protein expressing mouse BaF3 cells implanted in iv dosed BALB/c mouse assessed as tumor growth inhibition administered once daily for 7 days; format: functional, organism-based; conditions: dose 30-50 mg/kg, time 7.0 day

In the case of `Cc1ccc(C(=O)Nc2ccc(CN3CCN(C)CC3)c(C(F)(F)F)c2)cc1Oc1nc(-c2cccnc2)nc2[nH]ncc12`, the inhibition [1] is reported as “Active”, the Activity (BaF3 [2]) is reported as “Active” and the AUC(0-inf) [3] is reported as 2340 ng·h/mL. It also gave an IC50 [4] of 8.86 nM, an IC50 [5] of 5.43 nM and an AUC(0-t) [6] of 6960 ng·h/mL. The Activity (BaF3 [7]) was “Active”, the Activity [8] was 0.8% and the GI50 (MDA-MB-231) was 2430 nM. For the same compound, the Activity [9] was 0%, the Tmax [10] was 45 min and the TGI (BaF3 [11]) was greater than 60%. For the same compound, the GI50 (A-375) was 2950 nM, the inhibition (BaF3 [12]) was “Active” and the inhibition (BaF3 [13]) was “Active”. The Activity [14] was 0.25%, the GI50 (A549) was 3390 nM and the IC50 [15] was 7.86 nM. The Activity [16] was “Non-Toxic”, the inhibition [17] was “Dose-dependent effect” and the inhibition (Mus musculus [18]) was “Dose-dependent effect”. The inhibition [19] was “Dose-dependent effect”, the inhibition (Mus musculus [20]) was “Dose-dependent effect” and the GI50 [21] was 9 nM. The IC50 [22] was 8.42 nM, the GI50 (NCI-H3122) was 5680 nM and the inhibition [23] was “Active”. The Activity (BaF3 [24]) was “Dose-dependent effect”.
